From article PMC11795524, “Melanin-Binding-Based Discovery of Topically Instilled Carbonic Anhydrase Inhibitors for Targeted Delivery and Prolonged Action in the Eye” (Molecular Pharmaceutics, 2025) come the findings set out here.

This test has as its system albino rabbits (New Zealand White). Description: IOP study in albino rabbits after single eye drop. The format is in vivo, rabbit. Conditions: single 25 μL eye drop; CAI 0.5 or 1.0%, dorzolamide 2%; n = 5. The procedure:
Five 3–5 months old albino (New Zealand White, all females) and five 3–6 months old pigmented rabbits (Chinchilla Bastard, 1 male and 4 females) were purchased from Charles River Laboratories, UK and Germany, respectively. Prior to the experiments, the rabbits were habituated to handling, and the baseline values of IOP were measured. During the experiments, rabbits weighed 2.4–4.0 kg.
First, stock solutions of CAIs (250 mg/mL) in dimethyl sulfoxide (Sigma-Aldrich, Germany) were prepared. These stock solutions were diluted with PBS (pH 7.4) to obtain 1 mg/mL (0.1%) or 10 mg/mL (1%) solutions. Water-solubility of the compounds was enhanced with 2-hydroxypropyl-β-cyclodextrin (Sigma-Aldrich, Germany) (Table 1).
The CAI solutions were tested in albino rabbits (eye drops of 0.1, and 0.5 or 1.0%) and in pigmented rabbits (0.5 or 1.0%). The novel CAI concentrations in solutions were determined based on the drug solubility with the aim to load the highest possible drug concentration to the single eye drop.
The IOP levels in the rabbits were measured with a tonometer (Tonometer Pro, Icare Finland Ltd.). After baseline IOP measurements, a single eye drop (25 μL) was applied to the left eye, whereas the right eye was not treated. After eye drop instillation, the eyelids were kept open manually for 1 min. The IOP was measured from both eyes of the rabbits at 0.5, 1, 2, 3, 4, 5, 6, 7, and 8 h after eye drop instillation. In the case of the pigmented rabbits, the measurements were continued until 10 h postinstillation, and further until the IOP had returned to the normal baseline.
The CAIs were tested in the same rabbits to minimize interindividual data variation. Washout periods of at least 3 days were used between instillation of different compounds. The experiments started always at 8 a.m. to eliminate bias due to diurnal IOP fluctuation. At each time point, the pressure was measured three times with the same eye, and the average values were calculated and used in data analysis.

Molecules are shown by their SMILES.

In the case of `C/C(=N\Nc1ccc(S(N)(=O)=O)cc1)c1cccnc1` [A01], the “AUC0-last ± SD in albino rabbits (IOP decrease vs time)” value is on record as 19.95 ± 7.16 mmHg x h.
